This is an account of results in paper PMC8291587, “Guanidine Derivatives: How Simple Structural Modification of Histamine H3R Antagonists Has Led to the Discovery of Potent Muscarinic M2R/M4R Antagonists” (ACS Chemical Neuroscience, 2021).

Molecules are shown by their SMILES. Read-outs that look alike come from different tables or passages of the source.

For this assay, the target named is T1, hM5R (Homo sapiens, UniProt P08912).
T1 construct: host or cells: CHO cells, stably transfected; crude membranes
T1 sequence (P08912 1-532): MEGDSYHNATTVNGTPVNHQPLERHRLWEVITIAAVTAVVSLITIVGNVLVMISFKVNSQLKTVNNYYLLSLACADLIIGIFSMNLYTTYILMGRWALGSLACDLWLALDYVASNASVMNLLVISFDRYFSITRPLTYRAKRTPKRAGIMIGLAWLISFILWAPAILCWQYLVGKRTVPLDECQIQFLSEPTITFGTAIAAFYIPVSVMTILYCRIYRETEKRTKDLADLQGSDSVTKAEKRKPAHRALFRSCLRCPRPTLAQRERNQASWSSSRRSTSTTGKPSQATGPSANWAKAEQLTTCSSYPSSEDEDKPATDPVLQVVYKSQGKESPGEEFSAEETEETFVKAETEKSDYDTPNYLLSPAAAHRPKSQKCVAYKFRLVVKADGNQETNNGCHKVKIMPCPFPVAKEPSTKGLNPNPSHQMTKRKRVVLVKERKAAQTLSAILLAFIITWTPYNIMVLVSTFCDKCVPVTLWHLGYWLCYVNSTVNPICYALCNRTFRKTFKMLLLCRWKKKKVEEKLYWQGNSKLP
The experiment in a line: hM5R radioligand binding ([3H]NMS, CHO cell membranes). As for the experimental part: To clearly explain the obtained outcome, we engaged the radioligand binding experiment. The hM1–hM5 radioligand binding experiments were performed in the membrane fractions of Chinese hamster ovary cells (CHO) stably expressing human variants of muscarinic receptors. N-[^3H]Methylscopolamine was used as the radiolabeled ligand.[39] Three compounds were selected from ex vivo screening on guinea pig ileum. […] This compound is also not completely selective for the remaining muscarinic receptor subtypes with −log Ki values over 6. […] It is also a potent muscarinic M1R antagonist, and the M1R/M2R selectivity ratio is <10. It is worth noting that such nonspecific anticholinergics are often associated with neuropsychiatric and cognitive disturbances and that nonselective muscarinic M1R/M2R antagonists, such as scopolamine, can produce cognitive deficits. Further structural modifications of ADS10227 should be used to increase selectivity toward the M2R, as these may present fewer potential side effects associated with the activation of the phospholipase C signaling pathway.
The culture was derived from CHO cells stably transfected with the genes of human variants of muscarinic receptors. These were purchased from Missouri S&T cDNA Resource Center (Rolla, MO, USA). Cell cultures and crude membranes were prepared as described previously.[45] […]
All radioligand binding experiments were optimized and carried out according to general guidelines.[39] […] N-Methylscopolamine binding was measured directly in saturation experiments using six concentrations (30–1000 pM) of [^3H]NMS during incubation for 1 h (M2R), 3 h (M1R, M3R, and M4R), or 5 h (M5R). For calculations of the equilibrium dissociation constant (KD), concentrations of free [^3H]NMS were calculated by subtraction of bound radioactivity from total radioactivity in the sample and fitting eq 1 (Experimental Data analysis section). The binding of the tested ligands was determined in competition experiments with 100 pM [^3H]NMS. […] Nonspecific binding was determined in the presence of 1 μM unlabeled atropine. […]

Where [1] appears, read: read-out: hM5R -log(Ki) ± sem (converted).

Take `N=C(N)N(CCCCN1CCN(CCCCCCCOc2ccccc2)CC1)Cc1ccccc1` [ADS1017]: where the note is “hM5R -log(Ki) ± sem”, the Ki is 468 nM.

For the molecule `N=C(N)N(CCCCN1CCN(C[C@H]2CC[C@@H](COc3ccccc3)CC2)CC1)Cc1ccccc1` [ADS10227, 1-{4-{4-{[4-(phenoxymethyl)cyclohexyl]methyl}piperazin-1-yl}but-1-yl}-1-(benzyl)guanidine], the Ki under setting [1] is 195 nM.

For the molecule `[H]/N=C(/N)N(CCCCN1CCN(CC2CCC(COc3ccccc3)CC2)CC1)Cc1ccc(C(F)(F)F)cc1` (stereo not drawn) [ADS10239], the inhibition constant Ki under setting [1] was 832 nM.

As usually defined, the Ki is a dissociation constant, usually derived from enzyme kinetics or from competition with a known ligand.
